Assay results taken from paper PMC7539012, “Hyperphosphorylated tau aggregation and cytotoxicity modulators screen identified prescription drugs linked to Alzheimer's disease and cognitive functions” (Scientific Reports, 2020).
Structures can show the parent of a compound that is named as a salt. Where two headings read alike, the source gives them in different places.

Test system: T1, 1N4R p-tau
T1 construct: made in house; host or cells: E. coli (PIMAX system)
Experiment: p-tau aggregation modulator screen of 1280-compound library (ThS fluorescence net change over 16 h);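 note: 30 µM compound with 6 µM p-tau over 16 h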
Type: biochemical

[1] = p-tau aggregation modulator screen of 1280-compound library, ThS fluorescence net change
[2] = 1280-compound library screen, ThS fluorescence net change over 16 h
[3] = p-tau aggregation modulator screen of the compound library, ThS fluorescence net change
[4] = p-tau aggregation modulator screen of 1280-compound library, […]
[5] = library screen, ThS fluorescence net change over 16 h with p-tau

CNC(=C[N+](=O)[O-])NCCSCc1csc(CN(C)C)n1 [Nizatidine] gave a ThS net change [1] of 334.

For COC(=O)Nc1nc2ccc(C(=O)c3cccs3)cc2[nH]1 [Nocodazole], the ThS net change [2] was 409.

With CC(=O)O[C@]1(C(C)=O)CC[C@H]2[C@@H]3C=C(C)C4=CC(=O)CC[C@@H]4[C@H]3CC[C@@]21C [Nomegestrol acetate] the ThS net change [3] was 463.

Work on CN1Cc2c(N)cccc2C(c2ccccc2)C1 (stereo not shown) [Nomifensine maleate] yielded a ThS net change [4] of 340.

For CNCCC=C1c2ccccc2C=Cc2ccccc21 [Norcyclobenzaprine], the ThS net change [1] was 372.

C#C[C@]1(O)CC[C@H]2[C@@H]3CCC4=CC(=O)CC[C@@H]4[C@H]3CC[C@@]21C [Norethindrone] gave a ThS net change [1] of 356.

Molecule C#C[C@]1(O)CC[C@H]2[C@@H]3CCC4=C(CCC(=O)C4)[C@H]3CC[C@@]21C [Norethynodrel] has a ThS net change [1] of 341.

For CCn1cc(C(=O)O)c(=O)c2cc(F)c(N3CCNCC3)cc21 [Norfloxacin], the ThS net change [1] was 340.

For C#C[C@]1(O)CC[C@H]2[C@@H]3CCC4=CC(=O)CC[C@@H]4[C@H]3CC[C@@]21CC [Norgestrel-(-)-D], the ThS net change [3] was 424.

CNCCC=C1c2ccccc2CCc2ccccc21 [Nortriptyline hydrochloride] showed a ThS net change [2] of 380.

CO[C@@H]1[C@@H](OC(N)=O)[C@@H](O)[C@H](Oc2ccc3c(O)c(NC(=O)c4ccc([O-])c(CC=C(C)C)c4)c(=O)oc3c2C)OC1(C)C.[Na+] [Novobiocin sodium salt] showed a ThS net change [1] of 369.

With CC(CCc1ccccc1)NC(C)C(O)c1ccc(O)cc1 (stereo not shown) [Nylidrin] the ThS net change [2] was 408.

With CC1/C=C/C=C/CC/C=C/C=C/C=C/C=C/C(O[C@@H]2O[C@H](C)[C@@H](O)[C@H](N)[C@@H]2O)CC(O)C(C(=O)O)C(O)CC(=O)CC(O)C(O)CCC(O)CC(O)CC(O)CC(=O)OC(C)C(C)C1O (stereo partly shown) [Nystatine] the ThS net change [3] was 446.

In the case of CC1COc2c(N3CCN(C)CC3)c(F)cc3c(=O)c(C(=O)O)cn1c23 (stereo not shown) [Ofloxacin], the ThS net change [5] is reported as 311.

For Cc1cc2c(s1)Nc1ccccc1N=C2N1CCN(C)CC1 [Olanzapine], the ThS net change [4] was 345.

For CN(C)CC/C=C1/c2ccccc2COc2ccc(CC(=O)O)cc21 [Olopatadine hydrochloride], the ThS net change [3] was 439.

Work on COc1ccc2[nH]c([S+]([O-])Cc3ncc(C)c(OC)c3C)nc2c1 (stereo not shown) [Omeprazole] yielded a ThS net change [3] of 454.

Molecule Cc1nccn1CC1CCc2c(c3ccccc3n2C)C1=O.Cl (stereo not shown) [Ondansetron Hydrochloride] has a ThS net change [2] of 407.

OCCN1CCN(CCCN2c3ccccc3C=Cc3ccccc32)CC1 [Opipramol dihydrochloride] gave a ThS net change [1] of 343.

Cc1ncc([N+](=O)[O-])n1CC(O)CCl (stereo not shown) [Ornidazole] gave a ThS net change [2] of 383.

Cc1ccccc1C(OCCN(C)C)c1ccccc1 (stereo not shown) [Orphenadrine hydrochloride] was tested, and the ThS net change [5] was 295.

Work on Cc1onc(-c2ccccc2)c1C(=O)N[C@@H]1C(=O)N2[C@@H]1SC(C)(C)[C@@H]2C(=O)[O-].[Na+] [Oxacillin sodium] yielded a ThS net change [1] of 373.

CCN(CC)CCc1nc(-c2ccccc2)no1.O=C(O)CC(O)(CC(=O)O)C(=O)O [Oxalamine citrate salt] showed a ThS net change [2] of 410.

Work on C[C@]12COC(=O)C[C@@H]1CC[C@@H]1[C@@H]2CC[C@@]2(C)[C@H]1CC[C@]2(C)O [Oxandrolone] yielded a ThS net change [4] of 338.

CN1CCCN=C1/C=C/c1cccc(O)c1.CN1CCCN=C1/C=C/c1cccc(O)c1.O=C(O)c1cc2ccccc2c(Cc2c(O)c(C(=O)O)cc3ccccc23)c1O [Oxantel pamoate] was tested, and the ThS net change [5] was 208.

With O=C(O)CCc1nc(-c2ccccc2)c(-c2ccccc2)o1 [Oxaprozin] the ThS net change [3] was 425.

In the case of NC(=O)N1c2ccccc2CC(=O)c2ccccc21 [Oxcarbazepine], the ThS net change [1] is reported as 376.

With CN(C(=O)CN(CCO)CC(=O)N(C)C(C)(C)Cc1ccccc1)C(C)(C)Cc1ccccc1 [Oxethazaine] the ThS net change [1] was 329.

Work on COC(=O)Nc1nc2ccc([S+]([O-])c3ccccc3)cc2[nH]1 (stereo not shown) [Oxfendazol] yielded a ThS net change [3] of 433.

CCCOc1ccc2nc(NC(=O)OC)[nH]c2c1 [Oxibendazol] gave a ThS net change [2] of 391.

For Clc1ccc(CO/N=C(\Cn2ccnc2)c2ccc(Cl)cc2Cl)c(Cl)c1 [Oxiconazole Nitrate], the ThS net change was 211.

CCn1cc(C(=O)O)c(=O)c2cc3c(cc21)OCO3 [Oxolinic acid] gave a ThS net change [5] of 313.

C=CCOc1ccccc1OCC(O)CNC(C)C (stereo not shown) [Oxprenolol hydrochloride] was tested, and the ThS net change [2] was 404.

COc1ccc(C(=O)c2ccccc2)c(O)c1 [Oxybenzone] was tested, and the ThS net change [2] was 383.

In the case of CCN(CC)CC#CCOC(=O)C(O)(c1ccccc1)C1CCCCC1 (stereo not shown) [Oxybutynin chloride], the ThS net change [2] is reported as 400.

For Cc1cc(C(C)(C)C)c(O)c(C)c1CC1=NCCN1 [Oxymetazoline hydrochloride], the ThS net change [1] was 339.

C[C@]12C/C(=C/O)C(=O)C[C@@H]1CC[C@@H]1[C@@H]2CC[C@@]2(C)[C@H]1CC[C@]2(C)O [Oxymetholone] gave a ThS net change of 475.

In the case of CCCCC1C(=O)N(c2ccccc2)N(c2ccc(O)cc2)C1=O (stereo not shown) [Oxyphenbutazone], the ThS net change [2] is reported as 398.

For CN(C)[C@@H]1C(O)=C(C(N)=O)C(=O)[C@@]2(O)C(O)=C3C(=O)c4c(O)cccc4[C@@](C)(O)[C@H]3[C@H](O)[C@@H]12 [Oxytetracycline dihydrate], the ThS net change [5] was 220.

Work on Cl.O=C(O)/C=C/c1ccc(Cn2ccnc2)cc1 [Ozagrel hydrochloride] yielded a ThS net change [2] of 389.

CC(=O)O[C@H]1C(=O)[C@@]2(C)[C@H]([C@H](OC(=O)c3ccccc3)[C@]3(O)C[C@H](OC(=O)[C@H](O)[C@@H](NC(=O)c4ccccc4)c4ccccc4)C(C)=C1C3(C)C)[C@]1(OC(C)=O)CO[C@@H]1C[C@@H]2O [Paclitaxel] gave a ThS net change [3] of 437.

Work on O=C1c2cccc3c2[C@H](CCC3)CN1[C@@H]1CN2CCC1CC2 [Palonosetron hydrochloride] yielded a ThS net change [3] of 458.

In the case of CC(=O)O[C@H]1C[C@@H]2CC[C@@H]3[C@H](CC[C@@]4(C)[C@H]3C[C@H]([N+]3(C)CCCCC3)[C@@H]4OC(C)=O)[C@@]2(C)C[C@@H]1[N+]1(C)CCCCC1 [Pancuronium bromide], the ThS net change is reported as 491.

CC(C)(CO)[C@@H](O)C(=O)NCCCO [Panthenol (D)] showed a ThS net change [3] of 429.

Molecule COc1ccnc(C[S+]([O-])c2nc3ccc(OC(F)F)cc3[nH]2)c1OC (stereo not shown) [Pantoprazole sodium] has a ThS net change [3] of 443.

In the case of COc1ccc(Cc2nccc3cc(OC)c(OC)cc23)cc1OC [Papaverine hydrochloride], the ThS net change [3] is reported as 427.

CCCCc1ccc2[nH]c(NC(=O)OC)nc2c1 [Parbendazole] gave a ThS net change of 465.

With C#CCN(C)Cc1ccccc1 [Pargyline hydrochloride] the ThS net change [2] was 389.

NC[C@@H]1O[C@H](O[C@H]2[C@@H](O)[C@H](O[C@@H]3[C@@H](O)[C@H](N)C[C@H](N)[C@H]3O[C@H]3O[C@H](CO)[C@@H](O)[C@H](O)[C@H]3N)O[C@@H]2CO)[C@H](N)[C@@H](O)[C@@H]1O [Paromomycin sulfate] showed a ThS net change of 472.

For Fc1ccc([C@@H]2CCNC[C@H]2COc2ccc3c(c2)OCO3)cc1 [Paroxetine Hydrochloride], the ThS net change [1] was 363.

Molecule C=C1C(=O)O[C@H]2[C@H]1CC/C(C)=C/CC[C@@]1(C)O[C@@H]21 [Parthenolide] has a ThS net change [3] of 434.

CCn1cc(C(=O)O)c(=O)c2cc(F)c(N3CCN(C)CC3)cc21 [Pefloxacine] showed a ThS net change [1] of 352.
